Test [1] has as its target T1, primase (UL5/UL8/UL52) (Human herpesvirus 1, UniProt P10236). Briefly: Inhibition of NTP polymerization onto primer:templates. It counts as biochemical. The following applies: for type of inhibition with respect to GTP incorporation: data not shown.
The target of test [2] is T1, primase (UL5/UL8/UL52). It counts as biochemical, herpes simplex virus I.
The target in test [3] is T1, primase (UL5/UL8/UL52). Briefly: Polymerization of nucleoside triphosphates onto a RNA primer:DNA template. It counts as biochemical, herpes simplex virus I. Conditions: for VMax: primer:template DNAT, DNAC or DNAG; for Km: primer:template with next correct NTP: DNAT (ATP), DNAC (GTP), DNAG (CTP).
The target of test [4] is T1, primase (UL5/UL8/UL52). Put plainly: Incorporation of nucleotides as the 5′-terminal nucleotide of the primer. Format: biochemical, herpes simplex virus I.
Test [5] deals with T1, primase (UL5/UL8/UL52). Put plainly: Incorporation of nucleotides as the second nucleotide of the primer. Format: biochemical, herpes simplex virus I.
Test [6] concerns the target T1, primase (UL5/UL8/UL52). Put plainly: Primer synthesis on d. Format: biochemical, herpes simplex virus I. Conditions: for primers elongated after incorporation of the nucleotide: 800 μM ATP; for primers elongated after incorporation of the nucleotide / incorporation by primase opposite template dG (new products of altered mobility): GTP; for incorporation by primase opposite template dG (new products of altered mobility): template d(GTCT)15, ATP, 800 μM analogue; for chain termination after incorporation: template d(GTCT)15, ATP and GTP.

The mark [7] stands for this setting: inhibition of GTP polymerization, GTP (100 μM), DNAC.
[8] abbreviates: inhibition of GTP polymerization, 800 μM GTP, DNAC.
Setting [9] is: inhibition of ATP polymerization, ATP (100 μM), DNAT.
Setting [10] is: IC50, inhibition of GTP polymerization, 800 μM GTP, DNAC.

Where two headings read alike, the source gives them in different places.

T1 sequence (P10189 whole entry): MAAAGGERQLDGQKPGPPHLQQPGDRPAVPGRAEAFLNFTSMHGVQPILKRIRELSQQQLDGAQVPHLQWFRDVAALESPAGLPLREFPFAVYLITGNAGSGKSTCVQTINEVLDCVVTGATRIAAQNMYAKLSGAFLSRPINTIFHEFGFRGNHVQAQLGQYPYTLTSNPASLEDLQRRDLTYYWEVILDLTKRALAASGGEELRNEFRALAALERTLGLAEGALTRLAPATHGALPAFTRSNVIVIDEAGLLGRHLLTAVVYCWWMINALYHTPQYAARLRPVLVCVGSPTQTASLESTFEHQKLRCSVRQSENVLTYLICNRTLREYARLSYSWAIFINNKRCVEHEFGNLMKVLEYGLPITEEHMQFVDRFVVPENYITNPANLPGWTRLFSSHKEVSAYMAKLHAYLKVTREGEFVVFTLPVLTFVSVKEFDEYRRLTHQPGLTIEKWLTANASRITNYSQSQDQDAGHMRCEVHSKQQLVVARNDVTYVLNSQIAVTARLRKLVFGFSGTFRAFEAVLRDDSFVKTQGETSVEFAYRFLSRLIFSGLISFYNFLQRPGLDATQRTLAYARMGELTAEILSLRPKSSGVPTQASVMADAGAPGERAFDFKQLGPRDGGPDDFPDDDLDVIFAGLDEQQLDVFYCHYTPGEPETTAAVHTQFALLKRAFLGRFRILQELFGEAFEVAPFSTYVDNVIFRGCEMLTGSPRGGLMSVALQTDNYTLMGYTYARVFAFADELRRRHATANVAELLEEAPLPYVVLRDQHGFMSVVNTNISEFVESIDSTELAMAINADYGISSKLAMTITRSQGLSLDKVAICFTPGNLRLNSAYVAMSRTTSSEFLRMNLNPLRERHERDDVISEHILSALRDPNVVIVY
T1 sequence (P10192 whole entry, further chain): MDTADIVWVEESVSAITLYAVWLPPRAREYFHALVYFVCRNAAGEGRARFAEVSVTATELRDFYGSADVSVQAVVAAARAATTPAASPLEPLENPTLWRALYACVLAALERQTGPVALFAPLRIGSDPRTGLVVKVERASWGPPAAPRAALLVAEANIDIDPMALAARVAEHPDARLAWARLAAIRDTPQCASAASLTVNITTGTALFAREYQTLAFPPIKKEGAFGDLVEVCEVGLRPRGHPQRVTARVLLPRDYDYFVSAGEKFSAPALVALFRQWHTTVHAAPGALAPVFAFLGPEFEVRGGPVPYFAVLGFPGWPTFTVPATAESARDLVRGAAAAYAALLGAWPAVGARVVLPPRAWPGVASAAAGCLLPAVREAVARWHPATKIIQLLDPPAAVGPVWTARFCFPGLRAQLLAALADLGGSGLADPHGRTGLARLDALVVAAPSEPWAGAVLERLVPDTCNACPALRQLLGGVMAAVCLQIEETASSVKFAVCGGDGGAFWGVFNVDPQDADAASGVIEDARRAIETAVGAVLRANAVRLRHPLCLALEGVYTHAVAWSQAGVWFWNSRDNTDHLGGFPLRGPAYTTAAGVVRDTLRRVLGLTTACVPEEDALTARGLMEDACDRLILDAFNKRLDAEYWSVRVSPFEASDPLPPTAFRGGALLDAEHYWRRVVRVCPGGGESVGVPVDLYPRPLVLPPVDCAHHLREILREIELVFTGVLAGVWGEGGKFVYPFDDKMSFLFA
T1 sequence (P10236 whole entry): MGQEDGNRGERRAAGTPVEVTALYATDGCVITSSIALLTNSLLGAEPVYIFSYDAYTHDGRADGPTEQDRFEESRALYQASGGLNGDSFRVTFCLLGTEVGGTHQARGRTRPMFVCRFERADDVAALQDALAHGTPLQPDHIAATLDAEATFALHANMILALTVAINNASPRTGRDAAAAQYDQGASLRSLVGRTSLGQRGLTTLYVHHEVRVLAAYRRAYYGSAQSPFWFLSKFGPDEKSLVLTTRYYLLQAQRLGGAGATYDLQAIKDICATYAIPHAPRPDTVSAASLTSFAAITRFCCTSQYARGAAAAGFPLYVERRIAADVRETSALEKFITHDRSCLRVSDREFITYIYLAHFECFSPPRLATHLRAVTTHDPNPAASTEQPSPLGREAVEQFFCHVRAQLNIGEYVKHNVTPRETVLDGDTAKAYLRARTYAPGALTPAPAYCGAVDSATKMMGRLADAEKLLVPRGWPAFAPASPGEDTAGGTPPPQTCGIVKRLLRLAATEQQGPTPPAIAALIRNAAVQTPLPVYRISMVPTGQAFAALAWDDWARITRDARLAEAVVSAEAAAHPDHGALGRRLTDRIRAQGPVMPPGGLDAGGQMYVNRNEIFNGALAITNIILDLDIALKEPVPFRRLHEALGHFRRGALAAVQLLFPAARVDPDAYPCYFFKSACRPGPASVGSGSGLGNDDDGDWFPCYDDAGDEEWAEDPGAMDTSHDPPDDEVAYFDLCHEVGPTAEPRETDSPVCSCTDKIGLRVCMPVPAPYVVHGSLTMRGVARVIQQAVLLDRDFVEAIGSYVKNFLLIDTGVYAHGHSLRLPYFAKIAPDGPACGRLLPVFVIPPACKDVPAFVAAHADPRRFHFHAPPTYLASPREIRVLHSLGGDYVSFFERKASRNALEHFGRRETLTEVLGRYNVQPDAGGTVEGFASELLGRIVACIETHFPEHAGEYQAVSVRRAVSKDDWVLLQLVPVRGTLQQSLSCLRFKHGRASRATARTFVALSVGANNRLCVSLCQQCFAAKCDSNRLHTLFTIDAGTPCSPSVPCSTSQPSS

For the compound `Nc1nc2c(ncn2[C@@H]2O[C@H](COP(=O)(O)O)[C@@H](O)[C@H]2O)c(=O)[nH]1` [GMP], the half-inhibitory concentration (IC50) against primase (UL5/UL8/UL52) [1] (setting [7]) worked out at 3800 ± 540 µM.

Regarding `Nc1nc2c(ncn2[C@H]2CC[C@@H](COP(=O)(O)OP(=O)(O)OP(=O)(O)O)O2)c(=O)[nH]1` [ddGTP], the “inhibition of primase activity” value at primase (UL5/UL8/UL52) [2] (template C20GCCCTA15, increasing ddGTP up to 2 mM) is reported as “up to 90%”. Besides, on primase (UL5/UL8/UL52) [2] (template C20GCCCTA15 for GTP analogues, ATP, [α-32P]GTP, partly data not shown), the “incorporation by primase as third and later nucleotide (new products)” value is reported as “no new products”. Also, the “type of inhibition with respect to GTP incorporation” value on primase (UL5/UL8/UL52) [1] is listed as “competitive”. The compound also registered a half-maximal inhibitory concentration (IC50) against primase (UL5/UL8/UL52) [1] (setting [8]) of 1100 ± 180 µM.

Take `Nc1ncnc2c1ncn2[C@@H]1O[C@H](COP(=O)(O)OP(=O)(O)O)[C@@H](O)[C@H]1O` [ADP]: the concentration for half-maximal inhibition (IC50) against primase (UL5/UL8/UL52) [1] (setting [9]) is over 10000 µM.

In turn, `Nc1nc2c(ncn2COCCOP(=O)(O)OP(=O)(O)OP(=O)(O)O)c(=O)[nH]1` [ACVTP, acyclovir triphosphate] came in with an IC50 against primase (UL5/UL8/UL52) [1] of 3200 ± 570 µM.

Take `Nc1nc2c(ncn2[C@@H]2O[C@H](COP(=O)(O)OP(=O)(O)OP(=O)(O)O)[C@@H](O)[C@H]2O)c(=O)[nH]1` [GTP]: the VMax stood at 0.060 ± 0.012 pmol/h on primase (UL5/UL8/UL52) [3], 1.1 ± 0.27 pmol/min at primase (UL5/UL8/UL52) [4] and 9.5 ± 1.3 pmol/min on primase (UL5/UL8/UL52) [5]. Also, the Michaelis-Menten constant (Km) on primase (UL5/UL8/UL52) [3] amounted to 230 ± 170 µM.

On to `Nc1ccn([C@@H]2O[C@H](COP(=O)(O)OP(=O)(O)OP(=O)(O)O)[C@@H](O)[C@H]2O)c(=O)n1` [CTP], for which the “primers elongated after incorporation of the nucleotide” value on primase (UL5/UL8/UL52) [6] (template d(GTCT)15) was 75%. Moreover, the “incorporation by primase opposite template dG (new products of altered mobility)” value at primase (UL5/UL8/UL52) [6] is recorded as “readily incorporates”. For the same compound, on primase (UL5/UL8/UL52) [3], the VMax worked out at 1.2 ± 0.16 pmol/h and the Michaelis-Menten constant (Km) was 1100 ± 280 µM.

For the compound `Nc1ccn([C@@H]2O[C@H](COP(=O)(O)OP(=O)(O)OP(=O)(O)O)[C@@H](O)[C@@H]2O)c(=O)n1` [AraCTP, arabinofuranosylcytosine triphosphate], on primase (UL5/UL8/UL52) [6], the “chain termination after incorporation” value is “very strong chain termination” and the “incorporation by primase opposite template dG (new products of altered mobility)” value is on record as “polymerized”. On primase (UL5/UL8/UL52) [3], the VMax was found to be 0.30 ± 0.05 pmol/h and the Km stood at 360 ± 190 µM.

On to `Nc1ncnc2c1ncn2[C@@H]1O[C@H](COP(=O)(O)OP(=O)(O)OP(=O)(O)O)[C@@H](O)[C@H]1O` [ATP], for which the results for the VMax at primase (UL5/UL8/UL52) [3], at primase (UL5/UL8/UL52) [4] and at primase (UL5/UL8/UL52) [5] were 0.23 ± 0.09 pmol/h, 14 ± 1.7 pmol/min and 5.1 ± 1.8 pmol/min, respectively. Besides, at primase (UL5/UL8/UL52) [3], the Michaelis constant (Km) amounted to 1700 ± 960 µM.

On to `Nc1ncnc2c1ncn2[C@@H]1O[C@H](COP(=O)(O)OP(=O)(O)OP(=O)(O)O)C[C@H]1O` [3′-dATP, cordycepin triphosphate], for which half-maximal inhibition at primase (UL5/UL8/UL52) [1] (inhibition of ATP polymerization, 800 μM ATP, DNAT) (IC50) required 1100 ± 170 µM.

As for `Nc1ncnc2c1ncn2[C@H]1CC[C@@H](COP(=O)(O)OP(=O)(O)OP(=O)(O)O)O1` [ddATP], the half-inhibitory concentration (IC50) at primase (UL5/UL8/UL52) [1] (IC50, inhibition of ATP polymerization, 800 μM ATP, DNAT) was 1700 ± 110 µM; against primase (UL5/UL8/UL52) [1] (setting [10]), 2400 ± 900 µM.

With `Nc1nc2c(ncn2[C@H]2C[C@H](O)[C@@H](COP(=O)(O)OP(=O)(O)OP(=O)(O)O)O2)c(=O)[nH]1` [2′-dGTP], at primase (UL5/UL8/UL52) [3], the VMax was 0.18 ± 0.02 pmol/h and the Km came to 130 ± 80 µM. Moreover, at primase (UL5/UL8/UL52) [5], the VMax was found to be 5.3 ± 0.8 pmol/min.

Consider `Nc1ncnc2c1ncn2[C@H]1C[C@H](O)[C@@H](COP(=O)(O)OP(=O)(O)OP(=O)(O)O)O1` [2′-dATP], for which the VMax was 0.024 ± 0.06 pmol/h at primase (UL5/UL8/UL52) [3], 20 ± 1.1 pmol/min on primase (UL5/UL8/UL52) [4] and over 10 pmol/min on primase (UL5/UL8/UL52) [5]. Further, on primase (UL5/UL8/UL52) [3], the Michaelis constant (Km) was 770 ± 370 µM.

Compound `Nc1nc(O)c2ncn(COC(CO)COP(=O)(O)OP(=O)(O)OP(=O)(O)O)c2n1` (centres unmarked) [GCVTP, ganciclovir triphosphate] yielded an IC50 against primase (UL5/UL8/UL52) [1] (setting [8]) of 3400 ± 880 µM.

Regarding `Nc1ccn(C2SC(COP(=O)(O)OP(=O)(O)OP(=O)(O)O)C(O)C2O)c(=O)n1` (centres unmarked) [SaraCTP, 4′-thio-arabinofuranosylcytosine triphosphate], on primase (UL5/UL8/UL52) [6], the “chain termination after incorporation” value was “very strong chain termination” and the “incorporation by primase opposite template dG (new products of altered mobility)” value is given as “polymerized”.

`Nc1ncnc2c1ncn2[C@@H]1O[C@H](COP(=O)(O)O)[C@@H](O)[C@H]1O` [AMP]: at primase (UL5/UL8/UL52) [1] (setting [9]), the IC50 is over 10000 µM.

For `Nc1nc2c(ncn2[C@@H]2O[C@H](COP(=O)(O)OP(=O)(O)O)[C@@H](O)[C@H]2O)c(=O)[nH]1` [GDP], the “type of inhibition with respect to GTP incorporation” value on primase (UL5/UL8/UL52) [1] is on record as “competitive”. The compound further came in with a half-maximal inhibitory concentration (IC50) at primase (UL5/UL8/UL52) [1] (setting [7]) of 4400 ± 650 µM.

As for `Nc1ccn([C@@H]2O[C@H](COP(=O)(O)OP(=O)(O)OP(=O)(O)O)[C@@H](O)C2(F)F)c(=O)n1` [dFdCTP, 2′,2′-Difluoro-2′-deoxycytidine triphosphate], the “primers elongated after incorporation of the nucleotide” value on primase (UL5/UL8/UL52) [6] (template d(GTCT)15) is on record as 11%. Also, the inhibition of primase entry against primase (UL5/UL8/UL52) [6] (800 μM, template d(GTCT)15) is given as “relatively strong inhibition”. Besides, on primase (UL5/UL8/UL52) [6], the “chain termination after incorporation” value is “strong chain termination” and the “incorporation by primase opposite template dG (new products of altered mobility)” value was “polymerized”.

Consider `Nc1ccn([C@H]2CC[C@@H](COP(=O)(O)OP(=O)(O)OP(=O)(O)O)O2)c(=O)n1` [ddCTP], for which the “incorporation by primase opposite template dG (new products of altered mobility)” value on primase (UL5/UL8/UL52) [6] was “does not readily incorporate”. For the same compound, at primase (UL5/UL8/UL52) [6] (template d(GTCT)15, increased ddCTP concentration, data not shown), the inhibition of primase was over 90%. Further, half-maximal inhibition against primase (UL5/UL8/UL52) [1] (setting [10]) (IC50) was put at 800 ± 120 µM.

Consider `Nc1ncnc2c1ncn2[C@@H]1O[C@H](COP(=O)(O)OP(=O)(O)OP(=O)(O)O)[C@@H](O)[C@@H]1O` [AraATP, arabionfuranosyladenine triphosphate], for which the VMax stood at 0.026 ± 0.004 pmol/h on primase (UL5/UL8/UL52) [3], 0.04 ± 0.005 pmol/min at primase (UL5/UL8/UL52) [4] and 1.0 ± 0.16 pmol/min on primase (UL5/UL8/UL52) [5]. In addition, the Michaelis constant (Km) on primase (UL5/UL8/UL52) [3] was 190 ± 110 µM.

For the compound `Nc1ccn([C@H]2C[C@H](O)[C@@H](COP(=O)(O)OP(=O)(O)OP(=O)(O)O)O2)c(=O)n1` [2′-dCTP], the “incorporation by primase opposite template dG (new products of altered mobility)” value on primase (UL5/UL8/UL52) [6] is listed as “readily incorporates”. In addition, on primase (UL5/UL8/UL52) [3], the VMax came out at 0.16 ± 0.036 pmol/h and the Km stood at 640 ± 360 µM.

Turning to `Nc1nc2c(ncn2[C@@H]2O[C@H](COP(=O)(O)OP(=O)(O)OP(=O)(O)O)[C@@H](O)[C@@H]2O)c(=O)[nH]1` [AraGTP, arabinofuranosylguanine triphosphate], at primase (UL5/UL8/UL52) [3], the VMax stood at 0.044 ± 0.006 pmol/h and the Km was found to be 300 ± 140 µM. The VMax at primase (UL5/UL8/UL52) [5] was determined as 4.1 ± 0.3 pmol/min.

These data come from article PMC2586337 (Biochemistry, 2008).
